From patent US20220251114A1, “AZEPINES AS HBV CAPSID ASSEMBLY MODULATORS” (Janssen Sciences Ireland Unlimited Company, priority 2019, published 2022)

Tested on: HBV
Experiment: HBV replication inhibition assay (BDNA assay) in HepG2.2.15 cells
Format: cell-based
Conditions: Hepatitis B virus, 144 h, 6 days treatment, encapsidated HBV DNA in supernatant by branched DNA QuantiGene assay
Experimental: HBV replication inhibition by the disclosed compounds were determined in cells infected or transfected with HBV or cells with stably integrated HBV, such as HepG2.2.15 cells (Sells et al. 1987). In this example, HepG2.2.15 cells were maintained in cell culture medium containing 10% fetal bovine serum (FBS), Geneticin, L-glutamine, penicillin and streptomycin. HepG2.2.15 cells were seeded in 96-well plates at a density of 40,000 cells/well and were treated with serially diluted compounds at a final DMSO concentration of 0.5% either alone or in combination by adding drugs in a checker box format. Cells were incubated with compounds for three days, after which medium was removed and fresh medium containing compounds was added to cells and incubated for another three days. At day 6, supernatant was removed and treated with DNase at 37° C. for 60 minutes, followed by enzyme inactivation at 75° C. for 15 minutes. Encapsidated HBV DNA was released from the virions and covalently linked HBV polymerase by incubating in lysis buffer (Affymetrix QS0010) containing 2.5 μg proteinase K at 50° C. for 40 minutes. HBV DNA was denatured by addition of 0.2 M NaOH and detected using a branched DNA (BDNA) QuantiGene assay kit according to manufacturer recommendation (Affymetrix). HBV DNA levels were also quantified using qPCR, based on amplification of encapsidated HBV DNA extraction with QuickExtraction Solution (Epicentre Biotechnologies) and amplification of HBV DNA using HBV specific PCR probes that can hybridize to HBV DNA and a fluorescently labeled probe for quantitation. In addition, cell viability of HepG2.2.15 cells incubated with test compounds alone or in combination was determined by using CellTitre-Glo reagent according to the manufacturer protocol (Promega). The mean background signal from wells containing only culture medium was subtracted from all other samples, and percent inhibition at each compound concentration was calculated by normalizing to signals from HepG2.2.15 cells treated with 0.5% DMSO using equation El.
E1: % inhibition=(DMSOave−Xi)/DMSOave×100%
where DMSOave is the mean signal calculated from the wells that were treated with DMSO control (0% inhibition control) and Xi is the signal measured from the individual wells. EC50 values, effective concentrations that achieved 50% inhibitory effect, were determined by non-linear fitting using Graphpad Prism software (San Diego, Calif.) and equation E2.
E2: Y=Ymin+(Ymax−Ymin)/(1+10(Log EC50-X)×HillSlope)
where Y represents percent inhibition values and X represents the logarithm of compound concentrations.
Selected disclosed compounds were assayed in the HBV replication assay (BDNA assay), as described above, and a representative group of these active compounds is shown in Table 3.

SMILES | EC50
N#Cc1cc(NC(=O)N2CCc3nn4c(c3C2)OCC=C(CO)C4)ccc1F [Example 1, N-(3-Cyano-4-fluorophenyl)-4-(hydroxymethyl)-5,8,9,11-tetrahydropyrido-[4′,3′:3,4]pyrazolo[5,1-b] [1,3] oxazepine-10(2H)-carboxamide] | 18 nM
N#Cc1cc(NC(=O)N2CCc3nn4c(c3C2)SCCC(O)C4)ccc1F (stereo not shown) [Example 2, N-(3-Cyano-4-fluorophenyl)-4-hydroxy-2,3,4,5,8,9-hexahydropyrido[4′,3′:3,4]-byrazolo[5,1-b][1,3]thiazepine-10(11H)-carboxamide] | 15 nM
N#Cc1cc(NC(=O)N2CCc3nn4c(c3C2)SCC(O)CC4)ccc1F (stereo not shown) [Example 3, N-(3-Cyano-4-fluorophenyl)-3-hydroxy-2,3,4,5,8,9-hexahydropyrido[4′,3′:3,4]-pyrazolo[5,1-b][1,3]thiazepine-10(11H)-carboxamide] | 5 nM
N#Cc1cc(NC(=O)N2CCc3nn4c(c3C2)[S+]([O-])CCC(O)C4)ccc1F (stereo not shown) [Example 4, N-(3-Cyano-4-fluorophenyl)-4-hydroxy-2,3,4,5,8,9-hexahydropyrido[4′,3′:3,4]-pyrazolo[5,1-b][1,3]thiazepine-10(11H)-carboxamide 1-oxide] | 834 nM
N#Cc1cc(NC(=O)N2CCc3nn4c(c3C2)S(=O)(=O)CCC(O)C4)ccc1F (stereo not shown) [Example 5, N-(3-Cyano-4-fluorophenyl)-4-hydroxy-2,3,4,5,8,9-hexahydropyrido[4′,3′:3,4]-pyrazolo[5,1-b][1,3]thiazepine-10(11H)-carboxamide 1,1-dioxide] | 40 nM
N#Cc1cc(NC(=O)N2CCc3nn4c(c3C2)[S+]([O-])CC(O)CC4)ccc1F (stereo not shown) [Example 6, N-(3-Cyano-4-fluorophenyl)-3-hydroxy-2,3,4,5,8,9-hexahydropyrido[4′,3′:3,4]-pyrazolo[5,1-b][1,3]thiazepine-10(11H)-carboxamide 1-oxide] | 141 nM
N#Cc1cc(NC(=O)N2CCc3nn4c(c3C2)S(=O)(=O)CC(O)CC4)ccc1F (stereo not shown) [Example 7, N-(3-Cyano-4-fluorophenyl)-3-hydroxy-2,3,4,5,8,9-hexahydropyrido[4′,3′:3,4]-pyrazolo[5,1-b][1,3]thiazepine-10(11H)-carboxamide 1,1-dioxide] | 3.5 nM
